# Laboratory results as given in patent US10544125B2, “Process for preparing an anti-cancer agent, 1-((4-(4-fluoro-2-methyl-1H-indol-5-yloxy)-6-methoxyquinolin-7-yloxy)methyl)cyclopropanamine, its crystalline form and its salts” (Advenchen Pharmaceuticals, LLC, priority 2015, dated 2020).
# Where a name gives a salt, the structure may show the parent alone.
# Experiments:
# BEL7404 (liver) = test: In vitro MTT (proliferation) assay; format: cell-based; conditions: BEL7404 cancer cell line
# Method: (§1) In vitro MTT (proliferation) assay was performed with compound from above examples to give following inhibition results: […]
# PC-3 (prostate) = test: In vitro MTT (proliferation) assay; format: cell-based; conditions: PC-3 cancer cell line
# Method: as §1
# PANC-1 (pancreatic) = test: In vitro MTT (proliferation) assay; format: cell-based; conditions: PANC-1 cancer cell line
# Method: as §1
# SKOV3 (ovarian) = test: In vitro MTT (proliferation) assay; format: cell-based; conditions: SKOV3 cancer cell line
# Method: as §1
# Saos-2 (sarcoma) = test: In vitro MTT (proliferation) assay; format: cell-based; conditions: Saos-2 cancer cell line
# Method: as §1
# SW579 (thyroid) = test: In vitro MTT (proliferation) assay; format: cell-based; conditions: SW579 cancer cell line
# Method: as §1
# NC1-H157 (lung) = test: In vitro MTT (proliferation) assay; format: cell-based; conditions: NC1-H157 cancer cell line
# Method: as §1
# MKN45 (gastric) = test: In vitro MTT (proliferation) assay; format: cell-based; conditions: MKN45 cancer cell line
# Method: as §1
# HCT1 16 (colon) = test: In vitro MTT (proliferation) assay; format: cell-based; conditions: HCT1 16 cancer cell line
# Method: as §1
# MDA-MB-231 (breast) = test: In vitro MTT (proliferation) assay; format: cell-based; conditions: MDA-MB-231 cancer cell line
# Method: as §1
# Hela (cervical) = test: In vitro MTT (proliferation) assay; format: cell-based; conditions: Hela cancer cell line
# Method: as §1
# [1] = Conventional water solubility test; format: physicochemical
# Text: Conventional water solubility test has been conducted to give the following results: […]
# Ishikawa (endometrial) = test: In vitro MTT (proliferation) assay; format: cell-based, human; conditions: Ishikawa cancer cell line
# Method: as §1
# laser-induced CNV = test: Mouse model of laser-induced choroidal neovascularization (CNV); format: in vivo, C57 BL/6 mice; conditions: for reduction in average size of laser-induced CNV: C57 BL/6 mice, day -1 to day 10, FIG. 18
# Method: A mouse model of laser-induced choroidal neovascularization (CNV)
# (1) Experiments were performed in C57 BL/6 mice at 10 to 12 weeks of age. Laser CNV was induced with a 532 nm diode laser mounted on a slit lamp, using […], 100 ms duration and 100 mW laser energy. Each eye received 4 laser burns. Stock solution of AL3818-H1 was made by dissolving the compound in water to 25 mg/ml concentration, and further diluted to working solution of either 250 or 25 μg/ml in water. Mice were orally gavaged at dosage of 2.5 or 0.25 mg/kg body weight, in volume of 200 μl per 20 gram of body weight, once every day starting at one day before laser treatment until 10 days afterwards. Control group mice will receive gavage with water which is used to dissolve the compound. By the end of the experiment, mice were subjected to fluorescence angiography to exclude the spots with hemorrhage and other mechanic injuries caused by the procedures. Mice were sacrificed and CNV size was measured by immunostaining of RPE/choroid flat mount co-stained with FITC-conjugated isolectin B4 and anti-ICAM2 antibody. For groups of control, 0.25 mg/kg and 2.5 mg/kg, we examined 43, 44 and 49 eyes on RPE/choroid flat mount. After immunostaining, images were taken on a Zeiss fluorescence microscope. CNV size was measured in Image J software. […] (2) The potential synergistic or additive effects between AL3818-M and anti-VEGF antibody was also studied. Immediately after laser burn, mice were treated with a monoclonal VEGF neutralizing antibody from R&D Systems (mAb AF564) at 1 μg dosage by intravitreal injection. We had 4 experimental groups: control (treated with water), AL3818-M, anti-VEGF, and AL3818-M+anti-VEGF. A total of 75 laser spots were analyzed. Mice in control or AL3818-M alone group received the intravitreal injection of saline in the same 2 μl volume.
SMILES,IC50 (BEL7404 (liver)) [µM],IC50 (PC-3 (prostate)) [µM],IC50 (PANC-1 (pancreatic); MTT (proliferation) assay) [µM],IC50 (SKOV3 (ovarian); MTT (proliferation) assay) [µM],IC50 (Saos-2 (sarcoma); MTT (proliferation) assay) [µM],IC50 (SW579 (thyroid)) [µM],IC50 (NC1-H157 (lung)) [µM],IC50 (MKN45 (gastric)) [µM],IC50 (HCT1 16 (colon); MTT (proliferation) assay) [µM],IC50 (MDA-MB-231 (breast); MTT (proliferation) assay) [µM],IC50 (Hela (cervical)) [µM],water solubility [1] [µg/mL],IC50 (Ishikawa (endometrial)) [µM],solubility [1] [µg/mL],other results
"COc1cc2c(Oc3ccc4[nH]c(C)cc4c3F)ccnc2cc1OCC1(N)CC1 [AL3818-F, 1-((4-(4-Fluoro-2-methyl-1H-indol-5-yloxy)-6-methoxyquinolin-7-yloxy)methyl)cyclopropanamine]",0.93,5.11,1.34,5.97,5.13,1,1.83,3.11,3.25,5.56,3.23,20,1.04,,
"COc1cc2c(Oc3ccc4[nH]c(C)cc4c3F)ccnc2cc1OCC1(N)CC1 [AL3818-H1, 1-((4-(4-Fluoro-2-methyl-1H-indol-5-yloxy)-6-methoxy-quinolin-7-yloxy)-methyl)cyclopropanamine Bishydrochloride Acid Salt]",2.75,5.53,,,,2.33,7.18,1.77,,,,6000,5.67,,"reduction in average size of laser-induced CNV (laser-induced CNV; oral gavage 0.25 mg/kg body weight once daily): ~70%; reduction in average size of laser-induced CNV (laser-induced CNV; oral gavage 2.5 mg/kg body weight once daily): ~70%; IC50 (PANC-1 (pancreatic); Homo sapiens, PANC-1, MTT (proliferation) assay): 1.58 µM; IC50 (SKOV3 (ovarian); Homo sapiens, SK-OV-3, MTT (proliferation) assay): 5.34 µM; IC50 (Saos-2 (sarcoma); Homo sapiens, SAOS-2, MTT (proliferation) assay): 4.68 µM; IC50 (HCT1 16 (colon); Homo sapiens, HCT-116, MTT (proliferation) assay): 3.45 µM; IC50 (MDA-MB-231 (breast); Homo sapiens, MDA-MB-231, MTT (proliferation) assay): 10.2 µM; IC50 (Hela (cervical); Homo sapiens, HeLa): 3.7 µM"
"COc1cc2c(Oc3ccc4[nH]c(C)cc4c3F)ccnc2cc1OCC1(N)CC1.Cl.Cl.O [AL3818-H2, 1-((4-(4-Fluoro-2-methyl-1H-indol-5-yloxy)-6-methoxy-quinolin-7-yloxy)methyl)cyclopropanamine bishydrochloridehydrate Acid Salt]",1.74,3.88,1.55,5.7,4.98,1.29,2.29,3.9,3.34,5.71,4.07,7000,1.56,,
"COc1cc2c(Oc3ccc4[nH]c(C)cc4c3F)ccnc2cc1OCC1(N)CC1.O=C(O)/C=C\C(=O)O.O=C(O)/C=C\C(=O)O [AL3818-M, 1-((4-(4-Fluoro-2-methyl-1H-indol-5-yloxy)-6-methoxy-quinolin-7-yloxy)-methyl)cyclopropanamine Bismaleic Acid Salt]",1.15,3.62,1.15,6.56,5.49,1.15,2.02,2.65,4.62,5.37,3.94,,1.34,500,"reduction in laser CNV as compared to the control group (laser-induced CNV; 0.15 mg/kg together with 1 μg anti-VEGF antibody (mAb AF564) intravitreal, P<0.01, FIG. 19): ~30%"
"COc1cc2c(Oc3ccc4[nH]c(C)cc4c3F)ccnc2cc1OCC1(N)CC1.O=C(O)CCC(=O)O [AL3818-S, 1-((4-(4-Fluoro-2-methyl-1H-indol-5-yloxy)-6-methoxy-quinolin-7-yloxy)methyl)cyclopropanamine Succinic Acid Salt]",1.43,4.41,1.24,7.6,5.68,2.61,2.28,4.16,3.94,6.1,4.66,,1.32,100,
